The results in this text go back to US20250346634A1, “CYCLIC PEPTIDES FOR TARGETING EPIDERMAL GROWTH FACTOR RECEPTOR AND MUTATIONS THEREOF FOR DRUG DELIVERY” (priority 2022, published 2025).

Bridge positions count the residues as written; N and C are the ends. Peptide text beside a SMILES is read from it. * marks the point of attachment. FITC = O=C1OC2(c3ccc(O)cc3Oc3cc(O)ccc32)c2ccc(NC(=S)*)cc21; GABA = NCCCC(=O)O

Assay [1] relates to EGFR+ve cells (H1299, DKMG) versus K562 cells. Nature of the assay: Flow cytometry internalization of peptide-FITC conjugates. It is filed as cell-based. Particulars: 2.5 μM FITC-labeled peptide. An excerpt:
Analysis was done with FACS cell analyzer.

The test system of assay [2] is HEK-293 cells. Nature of the assay: Confocal microscopy, HEK-293. The class given is cell-based. Particulars: 25 μM, after 3 hours. The protocol: (§1) H1299, DKMG and HEK-293 cells were seeded in 12-well glass bottom black plates in concentrations of 5.0×10^4, 1.0×10^5, and 2.5×10^4 cells/well, respectively. The cells were cultured in complete growth medium at 37° C. under 5% CO2 for 24 h. After incubation, the medium was removed, the cells were twice washed with PBS Ca^2+Mg^2+, and new fresh medium (0.5 ml) contained 25 μM of FITC labeled P6 or P9 peptides was added. The stained cells were incubated at 37° C. under 5% CO2 for 0 h and 3 h, washed twice with PBS, and stained with Hoechst 33258 ([…], 0.5 ml, 37° C., 5% CO2) for 10 min. The cells were twice washed with PBS and fixed with 4% paraformaldehyde (PFA). Fluorescence images were then recorded at the magnification of ×200 with a Zeiss LSM700 confocal laser microscope.
(§2) To get additional confirmation data on the specificity of the FITC labeled P6 and P9 peptides towards EGFR H1299 lung cancer and […] DKMG glioblastoma cell lines compared to EGFR−ve HEK-293 normal cells, the inventors employed confocal scanning microscopy. The cells were incubated with 25 μM FITC-labeled P6 and P9, the cell nuclear were stained with […], the cells were fixed with 4% paraformaldehyde, and captured immediately after addition and 3 h later. […] A clear correlation of the green FITC signal with the cell type was established.

In assay [3] the test system is DKMG cells. Nature of the assay: Confocal microscopy, DKMG. It is filed as cell-based. The note with it: 25 μM; for green FITC signal: after 3 hours; for fluorescence intensity: time zero. The protocol:
as §1, §2

In assay [4] the test system is H1299 cells. Nature of the assay: Confocal microscopy, H1299. It is filed as cell-based. Particulars: 25 μM. The protocol: as §1, §2
Assay [5] has as its system high-EGFR-expressing MDA-435 cells. Nature of the assay: Target specificity by flow cytometry, MDA-435. Particulars: FITC-labeled peptides. The class given is cell-based. As to the method:
(§3) Cells with 80-90% confluence were incubated with 2.5 μM FITC-conjugated peptides in RPMI-5% FBS for 1 h at 37° C. Cells were scrapped from the culture flask and washed twice with 2 ml FCSB. Cells were analyzed as previously described Internalization of peptide-FITC conjugates.
(§4) Cells were cultured overnight in 6-well plates under 80-90% confluence, the medium was replaced with 1 ml of the fresh medium with 5% FBS that contained 2.5 μM FITC-conjugated peptides. The plates were incubated for 1, 2, or 3 h at 37° C. After incubation, the cells were collected with trypsin, washed twice with FCSB, and resuspended in 200 μl of FCSB. Analysis was done with FACS cell analyzer.
(§5) Targeting specificity of FITC-labeled P4-P6, P8, and P9 peptides was investigated on three cell lines, which were not used in biopanning: kidney HEK-293 and breast MCF-10A normal cells, and breast cancer MDA-435 cells. To verify EGFR WT expression on these cell lines, the inventors stained the cells with APC-labeled monoclonal anti-human EGFR antibody followed by a flow cytometry analysis.
(§6) The interaction of the FITC labeled P4 P6, P8, and P9 with these cell lines was analyzed by flow cytometry.

The subject of assay [6] is MCF-10A cells. The note with it: FITC-labeled peptides, flow cytometry. The protocol: as §3, §4, §5, §6
The test system of assay [7] is H1299, DKMG and K562 cells. Briefly: Flow cytometry binding of peptide-FITC conjugates. It is filed as cell-based. The note with it: 2.5 μM FITC-labeled peptide.
Text: This concentration was chosen based on preliminary dose dependence study.
Assay [8] relates to DKMG cells line expressing both EGFR+ve and EGFRvIII mutation. Particulars: 2.5 μM FITC-labeled peptide. The protocol: as §4

Consider `CC[C@H](C)[C@@H]1NC(=O)[C@H](Cc2ccc(O)cc2)NC(=O)[C@H](CO)NC(=O)CNC(=O)[C@@H]2CCCN2C(=O)[C@H](C(C)C)NC(=O)[C@H](Cc2cnc[nH]2)NC(=O)[C@@H](NC(=O)CCCNC(=S)Nc2ccc3c(c2)C(=O)OC32c3ccc(O)cc3Oc3cc(O)ccc32)CSSC[C@@H](C(N)=O)NC1=O` [FITC-labeled P6] ({FITC-GABA}-CHVPGSYIC-NH2; disulfide 1-9), for which the “internalization (flow cytometry)” value in assay [1] is recorded as “internalized only into to EGFR+ve cells”. Besides, the “green FITC signal” value in assay [2] was “low-intensive signal”; in assay [3] it was “strong signal”; in assay [4] (after 3 hours), “strong signal”. The fluorescence intensity result in assay [3] and in assay [4] (time zero) was “not detectable” each time. Moreover, the “internalization into MDA-435 cells” value in assay [5] is on record as “pronounced internalization”.

With `CC(C)C[C@@H]1NC(=O)[C@H](C)NC(=O)[C@H](CO)NC(=O)[C@@H](NC(=O)CCCNC(=S)Nc2ccc3c(c2)C(=O)OC32c3ccc(O)cc3Oc3cc(O)ccc32)CSSC[C@@H](C(N)=O)NC(=O)[C@H](Cc2cnc[nH]2)NC(=O)[C@H](CO)NC(=O)[C@H](C)NC(=O)[C@H](Cc2c[nH]c3ccccc23)NC1=O` [FITC-labeled P8] ({FITC-GABA}-CSALWASHC-NH2; disulfide 1-9), the “internalization (flow cytometry)” value in assay [1] is recorded as “internalized only into to EGFR+ve cells”. Besides, the “binding to MCF-10A cells” value in assay [6] was “noticeable binding”. For the same molecule, in assay [5], the “binding to MDA-435 cells” value is “noticeable binding”. For the same molecule, the “binding (flow cytometry)” value in assay [7] is “bind to H1299 and DKMG selectively but not to K562 cells”.

For the molecule `CSCC[C@@H]1NC(=O)[C@H](C)NC(=O)[C@H](CC(N)=O)NC(=O)[C@H](C(C)C)NC(=O)[C@@H](NC(=O)CCCNC(=S)Nc2ccc3c(c2)C(=O)OC32c3ccc(O)cc3Oc3cc(O)ccc32)CSSC[C@@H](C(N)=O)NC(=O)[C@H](Cc2ccc(O)cc2)NC(=O)[C@H](CO)NC(=O)[C@H](CCC(N)=O)NC1=O` [FITC-labeled P9] ({FITC-GABA}-CVNAMQSYC-NH2; disulfide 1-9), in assay [1], the “internalization (flow cytometry)” value is “internalized only into to EGFR+ve cells”. Also, the “internalization activity to DKMG” value in assay [8] is on record as “higher internalization activity”. Also, in assay [3], the “green FITC signal” value is “significantly increased after 3 hours” and the fluorescence intensity entry is listed as “pronounced emission”. Besides, the “internalization into MDA-435 cells” value in assay [5] is recorded as “pronounced internalization”. Besides, the “binding (flow cytometry)” value in assay [7] was “bind to H1299 and DKMG selectively but not to K562 cells”.
